Here are results for two molecules from patent US9474790B2, “Stable, protracted GLP-1/glucagon receptor co-agonists for medical use” (Novo Nordisk A/S, priority 2013, dated 2016).

The test addresses T1, human GLP-1 receptor (Homo sapiens, UniProt P43220).
T1 construct: expressed in transfected cells; host or cells: BHK cells (parent BHKTS13), clone FCW467-12A/KZ10-1, with CRE luciferase
Briefly: GLP-1 receptor potency, CRE luciferase reporter gene assay in BHK cells. Type of test: cell-based. Particulars: BHK cells expressing human GLP-1 receptor, read-out: EC50 GLP-1R. How it is done: The purpose of this example was to test the potency, of the glucagon derivatives of the invention, in vitro. The in vitro potency is the measure of human GLP-1 receptor or glucagon receptor activation, respectively, in a whole cell assay.
In vitro potency was determined by measuring the response of human GLP-1 or glucagon receptor, respectively, in a reporter gene assay. The assay was performed in a stably transfected BHK cell line that expresses either the human GLP-1 receptor or the human glucagon receptor and contains the DNA for the cAMP response element (CRE) coupled to a promoter and the gene for firefly luciferase (CRE luciferase). […] When assay incubation was completed, the luciferase substrate (luciferin) was added and the enzyme converted luciferin to oxyluciferin and produces bioluminescence. The luminescence was measured as the readout for the assay.
The cells used in this assay (clone FCW467-12A/KZ10-1) were BHK cells with BHKTS13 as a parent cell line. The cells were derived from a clone (FCW467-12A) that expresses the human GLP-1 receptor and were established by further transfection with
CRE luciferase to obtain the current clone.
The cells were cultured at 5% CO2 in DMEM medium with 10% FBS, 1×GlutaMAX, 1 mg/ml G418, 240 nM MTX (methotrexate) and 1% pen/strep (penicillin/streptomycin). They were aliquoted and stored in liquid nitrogen. Before each assay, an aliquot was taken up and washed three times in PBS before being suspended at the desired concentration in assay medium. For 96-well plates the suspension was made to give a final concentration of 5×10EE3 cells/well.
The following chemicals were used in the assay: Pluronic F-68 (10%) (Gibco 2404), ovalbumin (Sigma A5503), DMEM w/o phenol red (Gibco 11880-028), 1 M Hepes (Gibco 15630), Glutamax 100× (Gibco 35050) and steadylite plus (PerkinElmer 6016757).
Assay Medium consisted of DMEM w/o phenol red, 10 mM Hepes, lx GlutaMAX, 2% Ovalbumin and 0.2% Pluronic F-68.
Cell stocks were thawed in a 37° C. water bath. Cells were washed three times in PBS. The cells were counted and adjusted to 5×10EE3 cells/50 μl (1×10EE5 cells/ml) in Assay Medium. A 50 μl aliquot of cells was transferred to each well in the assay plate.
Stocks of the test compounds and reference compounds were diluted to a concentration of […] in Assay Medium. Compounds were diluted 10-fold to give the following concentrations: 2×10EE-6 M, 2×10EE-7 M, 2×10EE-8 M; 2×10EE-9 M, 2×10EE-10 M, 2×10EE-11 M, 2×10EE-12 M and 2×10EE-13 M. For each compound a blank assay medium control was also included.
A 50 μl aliquot of compound or blank was transferred from the dilution plate to the assay plate. Compounds were tested at the following final concentrations: 1×10EE-6 M, 1×10EE-7 M, 1×10EE-8 M; 1×10EE-9 M, 1×10EE-10 M, 1×10EE-11 M and 1×10EE-12 M and 1×10EE-13 M.
The assay plate was incubated for 3 h in a 5% CO2 incubator at 37° C. The assay plate was removed from the incubator and allowed to stand at room temperature for 15 min. A 100 μl aliquot of steadylite plus reagent was added to each well of the assay plate (reagent is light sensitive). Each assay plate was covered with aluminum foil to protect it from light and shaken for 30 min at room temperature. Each assay plate was read in a Perkin Elmer TopCount NXT instrument.
The data from the TopCount instrument was transferred to GraphPad Prism software. The software performed a non-linear regression (log(agonist) vs response-Variable slope (four parameter)). EC50 values were calculated by the software and reported in pM.
Background: In a reporter assay the amount or activity of a reporter protein is the signal.

Numbered stars: 1 amine (or outer) side, 2 acyl side, 3 side chain; on linkers, the order of the positions; unused ones are H or OH. Square brackets hold non-standard residues; d marks the D form. Side chains are listed from the residue outwards. Peptide text beside a SMILES is read from it. * marks the point of attachment. C18 diacid = O=C(O)CCCCCCCCCCCCCCCCC(=O)*; γGlu = O=C(O)[C@H](CCC(=O)[*:2])N[*:1]; AEEA = NCCOCCOCC(=O)O; Aib = CC(C)(N)C(=O)O

T1 sequence (P43220 24-463): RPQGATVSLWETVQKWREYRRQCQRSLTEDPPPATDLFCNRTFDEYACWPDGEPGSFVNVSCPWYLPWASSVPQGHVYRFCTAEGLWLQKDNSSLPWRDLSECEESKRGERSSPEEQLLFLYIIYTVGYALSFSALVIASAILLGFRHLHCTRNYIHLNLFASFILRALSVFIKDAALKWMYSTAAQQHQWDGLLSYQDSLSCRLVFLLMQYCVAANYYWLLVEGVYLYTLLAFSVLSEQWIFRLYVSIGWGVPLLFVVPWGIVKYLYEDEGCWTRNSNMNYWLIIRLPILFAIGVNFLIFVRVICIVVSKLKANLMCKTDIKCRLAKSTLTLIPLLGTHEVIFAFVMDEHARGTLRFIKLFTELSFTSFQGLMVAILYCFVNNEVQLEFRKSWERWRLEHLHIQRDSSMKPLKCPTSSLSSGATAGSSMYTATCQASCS

As a reminder, the EC50 is the concentration giving half of the maximal effect. Turning to `CC(C)C[C@H](NC(=O)[C@H](CC(C)C)NC(=O)[C@H](Cc1c[nH]c2ccccc12)NC(=O)[C@H](CCC(N)=O)NC(=O)[C@@H](NC(=O)[C@H](Cc1ccccc1)NC(=O)[C@H](CC(=O)O)NC(=O)[C@H](CCCNC(=N)N)NC(=O)[C@H](C)NC(=O)[C@H](CCCNC(=N)N)NC(=O)[C@H](CCCNC(=N)N)NC(=O)[C@H](CO)NC(=O)[C@H](CC(=O)O)NC(=O)[C@H](CC(C)C)NC(=O)[C@H](Cc1ccc(O)cc1)NC(=O)[C@H](CCCCN)NC(=O)[C@H](CO)NC(=O)[C@H](CC(C)C)NC(=O)[C@H](CC(=O)O)NC(=O)[C@H](CO)NC(=O)[C@@H](NC(=O)[C@H](Cc1ccccc1)NC(=O)[C@@H](NC(=O)CNC(=O)[C@H](CCC(N)=O)NC(=O)C(C)(C)NC(=O)[C@@H](N)Cc1c[nH]cn1)[C@@H](C)O)[C@@H](C)O)C(C)C)C(=O)N[C@@H](CO)C(=O)N[C@@H](CCCCNC(=O)CC[C@H](NC(=O)CC[C@H](NC(=O)COCCOCCNC(=O)COCCOCCNC(=O)CC[C@H](NC(=O)CCCCCCCCCCCCCCCCC(=O)O)C(=O)O)C(=O)O)C(=O)O)C(N)=O` [Example 5, N^ε29-[(4S)-4-carboxy-4-[[(4S)-4-carboxy-4-[[2-[2-[2-[[2-[2-[2-[[(4S)-4-carboxy-4-(17-carboxyheptadecanoylamino)butanoyl]amino]ethoxy]ethoxy]acetyl]amino]ethoxy]ethoxy]acetyl]amino]butanoyl]amino]butanoyl]-[Aib2,Leu10,Arg20,Leu27,Ser28,Lys29]-Glucagon amide] (H-H[Aib]QGTFTSDLSKYLDSRRARDFVQWLLSK([γGlu-γGlu-AEEA-AEEA-γGlu-C18 diacid])-NH2; N-terminus assumed), the EC50 is 0.005 nM. `CC(C)C[C@H](NC(=O)[C@H](Cc1ccc(O)cc1)NC(=O)[C@H](CCCCN)NC(=O)[C@H](CO)NC(=O)[C@H](CC(C)C)NC(=O)[C@H](CC(=O)O)NC(=O)[C@H](CO)NC(=O)[C@@H](NC(=O)[C@H](Cc1ccccc1)NC(=O)[C@@H](NC(=O)CNC(=O)[C@H](CCC(N)=O)NC(=O)C(C)(C)NC(=O)[C@@H](N)Cc1c[nH]cn1)[C@@H](C)O)[C@@H](C)O)C(=O)N[C@@H](CC(=O)O)C(=O)N[C@@H](CO)C(=O)N[C@@H](CCCNC(=N)N)C(=O)N[C@@H](CCCNC(=N)N)C(=O)N[C@@H](C)C(=O)N[C@@H](CCCNC(=N)N)C(=O)N[C@@H](CC(=O)O)C(=O)N[C@@H](Cc1ccccc1)C(=O)N[C@H](C(=O)N[C@@H](CCC(N)=O)C(=O)N[C@@H](Cc1c[nH]c2ccccc12)C(=O)N[C@@H](CC(C)C)C(=O)N[C@@H](CC(C)C)C(=O)N[C@@H](CO)C(=O)N[C@H](C(=O)N[C@@H](CCCCNC(=O)CC[C@H](NC(=O)CC[C@H](NC(=O)COCCOCCNC(=O)COCCOCCNC(=O)CC[C@H](NC(=O)CCCCCCCCCCCCCCCCC(=O)O)C(=O)O)C(=O)O)C(=O)O)C(N)=O)[C@@H](C)O)C(C)C` [Example 6, N^α-([Aib2,Leu10,Arg20,Leu27,Ser28]-Glucagonyl)-N{Epsilon}[(4S)-4-carboxy-4-[[(4S)-4-carboxy-4-[[2-[2-[2-[[2-[2-[2-[[(4S)-4-carboxy-4-(17-carboxyheptadecanoylamino)butanoyl]amino]ethoxy]ethoxy]acetyl]amino]ethoxy]ethoxy]acetyl]amino]butanoyl]amino]butanoyl]Lys amide] (H-H[Aib]QGTFTSDLSKYLDSRRARDFVQWLLSTK([γGlu-γGlu-AEEA-AEEA-γGlu-C18 diacid])-NH2): the EC50 worked out at 0.02 nM.
